Results from patent publication US10539566B2, “Use of markers including filamin A in the diagnosis and treatment of prostate cancer” (Berg LLC, priority 2014, dated 2020).

What was measured:
Format in all cases: cell-based, human
[1] = system: LnCAP, DU145, and PC-3 cells; assay: Quantitative RT-PCR of FLNA, FLNB and KRT19 expression after prostate-relevant stimuli; settings: 24 h, DU145, PC-3 cells
Experimental: Specifically, mRNA was prepared from LnCAP, DU145, and PC-3 cells exposed to hypoxia (1% oxygen; A), TNFα (10 ng/mL; B), or R1881 (1 nM; C) for 24 h. Expression of FLNA, FLNB, and KRT19 was assessed by quantitative RT-PCR, normalized to TBP, and compared to PSA. Values represent means+SEM, N=3. * p<0.05 compared to normoxia/control.

PC3 cells = assay: Causal protein networks from 2D LC-MS proteomics of prostate cancer cells treated with ubidecarenone; settings: upon treatment with ubidecarenone
Text: An interrogative systems biology based discovery platform (i.e., Interrogative Platform Technology or a.k.a. Interrogative Biology™) disclosed in WO2012119129 (incorporated herein by reference), and shown schematically in FIG. 1, provides new mechanistic insights into understanding mitochondrial role in behavior of prostate cancer cells. The discovery platform involves discovery across a hierarchy of systems including in vitro human cell based models and human serum samples from prostate cancer patients and downstream data integration and mathematical modeling employing an Artificial Intelligence (AI) based informatic module. For cellular models, androgen sensitive LnCAP cell line and metastatic, androgen refractory PC3 cell line were treated with ubidecarenone (coenzyme Q10) in order to engage the mitochondrial machinery. Proteomic signatures were captured using a 2D LC-MS orbitrap technology. Total protein signatures were input to an AI based informatics module to generate causal protein networks (FIG. 2).
The keratin 8/15 association was lost upon treatment with ubidecarenone, and a direct association of keratins 7 and 15 was established (FIG. 3).

[2] = system: LnCAP cell line and PC3 cell line; assay: Wet lab assays measuring mitochondrial ROS, ATP and caspase 3 activation; settings: LnCAP and PC3 cells treated with ubidecarenone

Q: With C[C@]1(O)CC[C@H]2[C@@H]3CCC4=CC(=O)CCC4=C3C=C[C@@]21C [R1881] as the molecule, how does the “global regulation of FLNA, FLNB, and KRT19 expression (mRNA, normalized to TBP)” value ([1]; R1881 1 nM) read?
A: remained unaltered

Q: Which “direct association of keratins 7 and 15 in causal protein maps” value (PC3 cells) does the source give for COC1=C(OC)C(=O)C(C/C=C(\C)CC/C=C(\C)CC/C=C(\C)CC/C=C(\C)CC/C=C(\C)CC/C=C(\C)CC/C=C(\C)CC/C=C(\C)CC/C=C(\C)CCC=C(C)C)=C(C)C1=O [ubidecarenone] here?
A: established

Q: What about the “keratin 8/15 association in causal protein maps” value (PC3 cells) of the same molecule?
A: lost

Q: What about the “intracellular levels of mitochondrial ROS, ATP and caspase 3 activation” value [2] of the same molecule?
A: confirmed changes in intracellular levels

Q: Which “global regulation of FLNA, FLNB, and KRT19 expression (mRNA, normalized to TBP)” value ([1]; TNFα 10 ng/mL) does the source give for TNFα here?
A: remained unaltered
